# Data published in PubChem BioAssay (NCI).
#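 Interpolation was linear, between the two tested concentrations surrounding the appropriate level; five concentrations were tested over 48 hours in 96-well plates. GI50 is the concentration that inhibits growth by half. TGI is the concentration that stops growth completely.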
# Columns and labels:
# Experiment in all cases: NCI tumour cell line growth inhibition, 48 h
# HOP-62 NSCLC = test system: HOP-62 NSCLC
# SK-MEL-5 melanoma = test system: SK-MEL-5 melanoma
# HOP-92 NSCLC = test system: HOP-92 NSCLC
# UO-31 renal = test system: UO-31 renal
# HCC-2998 colon = test system: HCC-2998 colon
# A549 NSCLC = test system: A549 NSCLC
# HL-60(TB) leukemia = test system: HL-60(TB) leukemia
# SN12C renal = test system: SN12C renal
# CAKI-1 renal = test system: CAKI-1 renal
# 786-0 renal = test system: 786-0 renal
# HCT-116 colon = test system: HCT-116 colon
# LOX IMVI melanoma = test system: LOX IMVI melanoma
# NCI-H226 lung = test system: NCI-H226 lung
# MCF7 breast = test system: MCF7 breast
# MDA-MB-231 breast = test system: MDA-MB-231 breast
# PC-3 prostate = test system: PC-3 prostate
# SK-MEL-2 melanoma = test system: SK-MEL-2 melanoma
# UACC-62 melanoma = test system: UACC-62 melanoma
# HT29 colon = test system: HT29 colon
# NCI-H460 lung = test system: NCI-H460 lung
# DU-145 prostate = test system: DU-145 prostate
# NCI/ADR-RES ovarian = test system: NCI/ADR-RES ovarian
# HCT-15 colon = test system: HCT-15 colon
# COLO 205 colon = test system: COLO 205 colon
# SF-268 CNS = test system: SF-268 CNS
# ACHN renal = test system: ACHN renal
compound,measurement,setting,value
O=c1c2cc(F)ccc2sc2c(NCCCNCCO)nc3ccccc3c12,GI50,HOP-62 NSCLC,1770 nM
same,TGI,HOP-62 NSCLC,3.69 µM
same,GI50,SK-MEL-5 melanoma,1760 nM
same,TGI,SK-MEL-5 melanoma,3.2 µM
same,GI50,HOP-92 NSCLC,1230 nM
same,TGI,HOP-92 NSCLC,3.14 µM
same,GI50,UO-31 renal,1570 nM
same,TGI,UO-31 renal,2960 nM
same,GI50,HCC-2998 colon,1690 nM
same,TGI,HCC-2998 colon,3.34 µM
same,GI50,A549 NSCLC,1790 nM
same,TGI,A549 NSCLC,3.78 µM
same,GI50,HL-60(TB) leukemia,2000 nM
same,TGI,HL-60(TB) leukemia,4.02 µM
same,GI50,SN12C renal,1670 nM
same,TGI,SN12C renal,3.17 µM
same,GI50,CAKI-1 renal,1610 nM
same,TGI,CAKI-1 renal,2970 nM
same,GI50,786-0 renal,1530 nM
same,TGI,786-0 renal,3.07 µM
same,GI50,HCT-116 colon,1730 nM
same,TGI,HCT-116 colon,3.32 µM
same,GI50,LOX IMVI melanoma,1680 nM
same,TGI,LOX IMVI melanoma,3.17 µM
same,GI50,NCI-H226 lung,1500 nM
same,TGI,NCI-H226 lung,3000 nM
same,GI50,MCF7 breast,1410 nM
same,TGI,MCF7 breast,2940 nM
same,GI50,MDA-MB-231 breast,1560 nM
same,TGI,MDA-MB-231 breast,3.03 µM
same,GI50,PC-3 prostate,1700 nM
same,TGI,PC-3 prostate,3.29 µM
same,GI50,SK-MEL-2 melanoma,1940 nM
same,TGI,SK-MEL-2 melanoma,4.01 µM
same,GI50,UACC-62 melanoma,1730 nM
same,TGI,UACC-62 melanoma,3.23 µM
same,GI50,HT29 colon,1750 nM
same,TGI,HT29 colon,3.43 µM
same,GI50,NCI-H460 lung,1640 nM
same,TGI,NCI-H460 lung,3.19 µM
same,GI50,DU-145 prostate,1720 nM
same,TGI,DU-145 prostate,3.13 µM
same,GI50,NCI/ADR-RES ovarian,1780 nM
same,TGI,NCI/ADR-RES ovarian,3.44 µM
same,GI50,HCT-15 colon,1630 nM
same,TGI,HCT-15 colon,3.12 µM
same,GI50,COLO 205 colon,2080 nM
same,TGI,COLO 205 colon,4.66 µM
same,GI50,SF-268 CNS,1590 nM
same,TGI,SF-268 CNS,3.21 µM
same,GI50,ACHN renal,1670 nM
